This passage reports melting point results from a melting point compilation (Tetko et al.; mined from patent text by program, amines drawn as free bases though some values may be those of a salt).

A word on the melting point: it is the temperature, or range, at which the solid turns liquid. Compound `CC(=O)N1CCC(C)(C)c2cc(F)cc(CCN3CCN(c4nsc5ccc(F)cc45)CC3)c21` displayed a melting point of 128 °C.

On to `Cc1cc(O)ccc1-n1cc(C(=O)O)c(=O)cc1C1CCCCCCC1`, for which the melting point is 118 to 120 °C.

Compound `COc1c(Nc2ncc(Cl)c(N[C@H]3[C@@H](C(N)=O)[C@@H]4C=C[C@H]3C4)n2)ccc2c1CC(N1CCOCC1)CCC2` (some centres not stated) had a melting point of 139 to 148 °C.

`COc1ccc(-c2nc(COCCc3cccc(NS(=O)(=O)C(F)(F)F)c3)cs2)cc1` came in with a melting point of 112 to 113 °C.

Compound `N#Cc1ccccc1NC(=O)C1CCCCC1` gave a melting point of 135 to 137 °C.

`CCOc1ccc(-c2ccc(C#CC3(O)CN4CCC3CC4)cc2)cc1` (configuration not stated) showed a melting point of 255 to 256 °C.

As to `COc1ccc(CN(C)CCc2ccc(NC(=O)c3cccc4c(=O)c5cccc(OC)c5sc34)cc2)cc1OC`, the melting point amounted to 151 °C.

Take `CCCCCCc1cnc(-c2ccc(F)cc2)nc1`: the melting point was 39 °C.

`COC(=O)c1cccc(N)c1CS(=O)(=O)NC(C)(C)C` returned a melting point of 123 to 125 °C.

Take `COC(=O)[C@H](CSC(=O)N(C)C)NC(C)=O`: the melting point lay in the range of 119 to 121 °C.

As to `C=CCOc1ccc2c(c1CC=C)NC(=O)CC2`, the melting point lay within 119 to 121 °C.

As to `O=C(OC1N=C(c2ccccc2)c2ccccc2NC1=O)c1cc2ccccc2[nH]1` (racemic), the melting point is 271 to 273 °C.

In turn, `CSCC(NCc1cc(Br)cc(Br)c1N)C(=O)O` (configuration not stated) showed a melting point of 240 °C.

Compound `CSC[C@H](NCc1ccccc1N)C(=O)O` returned a melting point of 193 °C.

In the case of `CC(=O)Oc1ccc(-c2cnc[nH]c2=O)cc1OC(C)=O`, the melting point was 183 to 184 °C.

`CC(C)(C)C(=O)CC(=O)c1ccccc1`: the melting point lay in the range of 43 to 45 °C.

On to `CN=Cc1ccc2c(Br)c(OC)ccc2c1`, for which the melting point lay within 105 to 107 °C.

For the compound `O=C(NC1CCN(C(=O)OCCC2(C(=O)NCC(F)(F)F)c3ccccc3-c3ccccc32)CC1)c1ccccc1Oc1ccccc1`, the melting point lay within 68 to 73 °C.

Compound `COc1cc(CC2(C#N)c3cc(Cl)c(Cl)cc3C=CN2C(=O)c2ccccc2)cc(OC)c1OC` (configuration not stated) displayed a melting point of 193 to 195 °C.

Compound `CC(=O)NCc1ccc(CN2CCN(c3ccccc3)CC2)cc1[N+](=O)[O-]` displayed a melting point of 135 to 136 °C.

`CCOC(=O)c1ccc(CCC(=O)O)cc1` yielded a melting point of 108 to 110 °C.

In turn, `CC(C)CCCC(C)C1CCC2C3C(=O)C=C4CC(O)CCC4(C)C3CCC12C` (configuration not stated) registered a melting point of 169 to 170 °C.

In turn, `Clc1cc2c(cc1Cl)Nc1ccccc1C(NCc1cccnc1)=N2` registered a melting point of 209 to 210 °C.

In turn, `CC(C)Oc1cc(CCC(=O)O)n(Cc2ccc(Cl)cc2Cl)n1` displayed a melting point of 114 to 115 °C.

Consider `N#CC1(C#N)C2CCC(C2)C1(Cl)Cl` (configuration not stated), for which the melting point is 148 °C.

Compound `Cc1[nH]nc(CN2CCN(Cc3c[nH]c4ncccc34)CC2)c1-c1ccccc1` gave a melting point of 154 to 156 °C.

The compound `Cc1cc(C)nc(C(=O)n2cc(CC(=O)O)c3ccc(Cl)cc32)c1` showed a melting point of 219 to 220 °C.

Take `O=C(N[C@H]1CC[C@H](CCN2CCN(c3nccc4c3CCO4)CC2)CC1)c1ccccc1`: the melting point was 208 °C.

Regarding `COc1cccc2c1C(C)N1CC(=O)NC1=N2` (configuration not stated), the melting point was determined as 250 °C.

`Cc1nc(N2CCN(CCCc3ccccc3)C2=O)sc1C(=O)O` displayed a melting point of 218 to 221 °C.

`CCCCNC(=O)Oc1ccc(Oc2ccc(Cl)cc2)cc1` yielded a melting point of 106 to 108 °C.

On to `CCCN1C(=O)N2C[C@@H](Cc3ccccc3)N=C2c2[nH]c(COCc3ccccc3)nc21`, for which the melting point was in the range of 130 to 132 °C.

In turn, `COc1ccc2c(c1OC)CC(c1ccccc1)CC2(O)CN` (configuration not stated) had a melting point of 175 to 176 °C.

For `NC(=O)CNC(=O)c1cccc(-c2cccc3oc(Cc4cc(F)cc(Cl)c4)cc23)c1`, the melting point was in the range of 156 to 157 °C.

`O=C(NCc1cccc(-c2nc(=O)c3ccccc3s2)n1)c1cccs1`: the melting point fell in the range of 208 to 209 °C.

The compound `Cn1cc(C(O)CO)c2c3c(c(-c4ccccc4Cl)cc21)C(=O)NC3=O` (configuration not stated) registered a melting point of 179 to 183 °C.

`COc1ccc(CC2C(=O)N(Cc3ccccc3)c3ccccc3N=C2C)cc1` (configuration not stated): the melting point lay in the range of 136 to 137 °C.

In the case of `CCCc1nn(C)c2c(=O)n(CCNc3ccc(OC(C)(C)C(=O)O)cc3)c(CC)nc12`, the melting point is 136 to 138 °C.

`Cc1ccc2c(c1)-c1ncnn1CC(=O)N2` returned a melting point of 206 to 208 °C.

As to `CCOc1cc(CO)ccc1OCc1nc(-c2ccco2)oc1C`, the melting point lay within 141 to 142 °C.

`CN(C)S(=O)(=O)N1CCN(c2ccnc(CO)n2)CC1` yielded a melting point of 148 to 149 °C.

Compound `COC(=O)c1nc(Cl)c(F)c(N)c1I` had a melting point of 149 to 151 °C.

The compound `O=C1C=CC(=O)C(CC(Cl)(Cl)Cl)=C1` registered a melting point of 115 °C.

As for `O=C1CC[C@](CO)(COCc2ccccc2)O1`, the melting point worked out at 78 °C.

`COc1cc(C=O)cc(OC)c1O[Si](C)(C)C(C)(C)C` had a melting point of 68 °C.

`COc1cc(C2CCC(c3cc(OC)c(OC)c(OC)c3)O2)cc(OC)c1OC` (configuration not stated) came in with a melting point of 128 to 130 °C.

With `CC(=O)C(C#N)c1ccccc1` (configuration not stated), the melting point is more than 215 °C.

The compound `Cn1cccc1C(=NOCc1cccs1)C(=O)O` yielded a melting point of 70 to 71 °C.

Compound `CC(=O)Cn1cnc2c1c(=O)n(CC1CC1)c(=O)n2C1CCCC1` registered a melting point of 155 °C.

Compound `Cc1c(-c2ccccc2)c2cc(Cl)ccc2n1CC(N)=O` had a melting point of 223 to 224 °C.

With `O=C1NC(=O)C(c2c[nH]c3ccccc23)N1` (configuration not stated), the melting point is 229 to 230 °C.

With `O=C(Nc1ccc(C[C@H](NS(=O)(=O)N2CCSCC2)C(=O)O)cc1)c1c(Cl)cncc1Cl`, the melting point came to 173 °C.

Regarding `CC(C)COc1cc(N(C)C)ccc1C(=O)c1ccccc1C(=O)O`, the melting point is 199 to 201 °C.

Consider `Cc1cc(C)c2c3ccccc3c(=O)n(CCN(C)C)c2n1`, for which the melting point was 128 to 130 °C.

As to `CC(C)(C)OC(=O)CC[C@H](NC(=O)c1ccc(NCc2ccccc2)c(F)c1)C(=O)OC(C)(C)C`, the melting point is 80 to 82 °C.

Consider `Cc1c(Br)ccc(C=NO)c1Cl`, for which the melting point was in the range of 77 to 78 °C.

Compound `NC(=O)c1sc2nccc(N3CCCN(c4ccc(F)cc4)CC3)c2c1N` registered a melting point of 203 to 205 °C.

As for `CCc1cc(C)c2c(-c3cccc(Cl)c3)cc(=S)n(C)c2n1`, the melting point fell in the range of 131 to 133 °C.

The compound `O=C1C(CCO)Oc2ccccc2N1Cc1ccc([N+](=O)[O-])cc1` (configuration not stated) registered a melting point of 124 to 127 °C.

Take `Nc1nc(SSc2n[nH]c(N)n2)n[nH]1`: the melting point was 250 to 256 °C.

Take `CNC1=NN(C(=O)c2ccccc2)C(C)(C)S1`: the melting point is 130 to 136 °C.

Compound `O=C(NC(NC(=S)Nc1ccccc1)C(F)(F)F)c1ccc(Cl)cc1` (configuration not stated) registered a melting point of 198 to 201 °C.

In turn, `CCC(=O)N1CCC(COc2cccc3nc(C)c(C(=O)O)c(N)c23)CC1` displayed a melting point of 168 to 170 °C.

Regarding `CC#CCOc1cc(Cc2c(F)cccc2F)ncn1`, the melting point was 57.6 °C.

`Cn1c(CN)nc(-c2ccncn2)cc1=O` showed a melting point of 153 to 155 °C.

With `CSc1ccc(C(=O)c2ccc(F)cc2)[nH]1`, the melting point lay within 112 to 113 °C.

`NC(=NCC(F)(F)F)Nc1ccnc(SCCN2C(=O)c3ccccc3C2=O)n1` came in with a melting point of 192 to 195 °C.

The compound `CCn1nc(C)c2nc(C)nc(O)c21` registered a melting point of 220 to 223 °C.

Turning to `CC1CN(C)CC=C1C(=O)N1c2ccccc2NC(=O)c2ccccc21` (configuration not stated), the melting point lay in the range of 223 to 224 °C.

For the compound `Cn1cccc1Cc1cccc(NC(N)=O)c1`, the melting point lay in the range of 84 to 86 °C.

For `COC(=O)c1cc(C(=O)c2c(C)c(NC(=O)c3cccc(OCCOS(C)(=O)=O)c3)c3ccccn23)ccc1N`, the melting point amounted to 171 °C.

`CN1CCOc2cc(O)c(C3(O)C(=O)N(Cc4ccc(C(F)(F)F)o4)c4ccccc43)cc21` (configuration not stated) had a melting point of 184 to 186 °C.

Turning to `O=c1c2c(Cl)cccc2nc(CSc2ncnc3[nH]cnc23)n1-c1ccccc1F`, the melting point came out at 244 °C.

In turn, `CCCSC(C(N)=O)c1cc(C)cc(C(=O)c2ccc(F)cc2)c1N` (configuration not stated) gave a melting point of 130 to 132 °C.

`COc1cc(N)ccc1C=NNC(=N)NN=Cc1ccc(N)cc1OC` registered a melting point of 220 to 230 °C.

With `COC(=O)c1ccc(CN2CCOc3ccc([N+](=O)[O-])cc32)c(OC)c1`, the melting point lay within 130 to 132 °C.

`O=Cc1c2ccc(F)cc2c(C=O)c2ccc(F)cc12` displayed a melting point of 240 to 242 °C.

Take `CN1C(=O)C(C#N)(c2ccc(OCC3CO3)cc2)Sc2ccccc21` (configuration not stated): the melting point was 136 to 139 °C.

Compound `CCOC(=O)c1cn(-c2ccc(F)cc2F)c2nc(N3CCC(N)C3)c(F)cc2c1=O` (configuration not stated) showed a melting point of 200 to 202 °C.

With `CC(=O)Nc1ccc(-c2cc(C(=O)c3ccc(Cl)cc3)sc2N2CCOCC2)cc1`, the melting point is 120 °C.

In the case of `COC(=O)c1cc2cc(Br)ccc2nc1Cl`, the melting point fell in the range of 176 to 177 °C.

In turn, `CC1(C)COC(C(C)(C)Oc2ccc(Cl)cc2)=N1` showed a melting point of 59 to 61 °C.

The compound `Nc1ccc(C2CCOCC2)cc1` displayed a melting point of 122 °C.

`OC(CC1CCN(CC2CC2)CC1)(c1ccccc1)c1ccc(F)cc1` (configuration not stated) registered a melting point of 115 to 116 °C.

The compound `COc1cc2sc(C(=N)NO)cc2cc1OC(F)F` yielded a melting point of 176 to 177 °C.

As to `N#CN=C(N)NCc1ccc2c(c1)Nc1nccnc1S2`, the melting point was 246 to 248 °C.

For `N=c1sc2ccccc2n1C(C=O)c1ccc(Cl)cc1` (configuration not stated), the melting point was determined as 114 °C.

Turning to `CCN(CC)C(=O)n1ccc(S(=O)(=O)c2ccc(Br)c(C)c2)n1`, the melting point lay within 75 to 77 °C.

In turn, `Cc1cc(Br)cc(C)c1NC(=O)Nc1ccc(-n2nc(C(F)(F)F)cc2C(F)(F)F)cc1` came in with a melting point of more than 230 °C.

`Cc1noc(C)c1-c1cnc2c(c1)N(Cc1c(F)ccc(F)c1Cl)CCN2` yielded a melting point of 215 to 216 °C.

`COc1ccc2cc(-c3noc4cc(OC)ccc34)ccc2c1`: the melting point lay in the range of 141 to 143 °C.

`COc1ccc2c(c1)/C(=C/CNC(C)=O)CCC2` came in with a melting point of 92 to 94 °C.
